Test results taken from patent US20230293526A1, “METHOD FOR TREATING CANCER WITH A REVERSE TRANSCRIPTASE INHIBITOR” (PrimeFour Therapeutics, Inc., priority 2020, published 2023).

Columns and labels:
human LINE-1 = experiment: Human LINE-1 (L1) retrotransposition dual-luciferase reporter assay in HeLa cells; format: cell-based; conditions: Homo sapiens, HeLa, 72 h, read-out: Human LINE-1 IC50 (Human L1 activity inhibition)
Method in brief: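 HeLa cells transfected with dual-luciferase L1 plasmid pYX017 (100 ng/well), dosed immediately after with serially diluted compounds (0.2% DMSO final) in triplicate and incubated 72 h at 37 °C. Relative L1 activity = Firefly/Renilla ×10,000; IC50 from logistic non-linear regression.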

cancer cell lines = experiment: Cancer cell proliferation activity of representative nucleosides, CellTiterGlo 72 h (Example 7, Tables 8 and 9); format: cell-based; conditions: 72 h
Method in brief: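 Cancer cell lines seeded and incubated at 37° C overnight, then exposed to nucleosides (final DMSO 0.1%) for 72 h at 37° C with 5% or 10% CO2. Viability read by CellTiterGlo luminescence and normalized to 0.1% DMSO (100%) and 10 μM staurosporine (0%) controls.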

CC[C@]1(CO)O[C@@H](n2cnc3c(N)nc(N)nc32)C[C@@H]1O [compound 25]
IC50 (human LINE-1): 0.0036 µM
IC50 (cancer cell lines; 72 h, 5637, bladder): 3.52 µM
IC50 (cancer cell lines; CLS439, bladder): > 50 µM
IC50 (cancer cell lines; HS729, muscle): 3.42 µM
IC50 (cancer cell lines; J82, bladder): > 50 µM
IC50 (cancer cell lines; JAR, placenta): > 50 µM
IC50 (cancer cell lines; MT3, breast): 1.62 µM
IC50 (cancer cell lines; PC3, prostate): 3.02 µM
IC50 (cancer cell lines; RD, muscle): 3.39 µM
IC50 (cancer cell lines; T24, bladder): > 50 µM
IC50 (cancer cell lines; Homo sapiens, 22Rv1, 72 h, 22RV1, prostate): > 50 µM
IC50 (cancer cell lines; Homo sapiens, 786-0, 72 h, 786O, kidney): > 50 µM
IC50 (cancer cell lines; Homo sapiens, A204, 72 h, A204, muscle): 1.58 µM
IC50 (cancer cell lines; Homo sapiens, A549, 72 h, A549, lung): 3.25 µM
IC50 (cancer cell lines; Homo sapiens, A673, 72 h, A673, bone): > 50 µM
IC50 (cancer cell lines; Homo sapiens, A2780, 72 h, A2780, ovary): > 50 µM
IC50 (cancer cell lines; Homo sapiens, A-375, 72 h, A375, skin): 2.34 µM
IC50 (cancer cell lines; Homo sapiens, A-431, 72 h, A431, skin): > 50 µM
IC50 (cancer cell lines; Homo sapiens, ACHN, kidney): 5.89 µM
IC50 (cancer cell lines; Homo sapiens, ASPC1, 72 h, ASPC1, pancreas): 5.31 µM
IC50 (cancer cell lines; Homo sapiens, BT-20, 72 h, BT20, breast): > 50 µM
IC50 (cancer cell lines; Homo sapiens, BXPC-3, 72 h, BXPC3, pancreas): 3.54 µM
IC50 (cancer cell lines; Homo sapiens, C-33-A, C33A, endometrial): 3.7 µM
IC50 (cancer cell lines; Homo sapiens, CAKI-1, 72 h, CAKI1, kidney): 5.33 µM
IC50 (cancer cell lines; Homo sapiens, COLO 205, 72 h, COLO205, colon): 1.8 µM
IC50 (cancer cell lines; Homo sapiens, COLO-678, 72 h, COLO678, colon): > 50 µM
IC50 (cancer cell lines; Homo sapiens, Ca-Ski, CASKI, endometrial): > 50 µM
IC50 (cancer cell lines; Homo sapiens, Caco-2, 72 h, CACO2, colon): > 50 µM
IC50 (cancer cell lines; Homo sapiens, Calu-6, 72 h, CALU6, lung): 6.13 µM
IC50 (cancer cell lines; Homo sapiens, DLD-1, 72 h, DLD1, colon): > 50 µM
IC50 (cancer cell lines; Homo sapiens, DU-145, 72 h, DU145, prostate): 6.33 µM
IC50 (cancer cell lines; Homo sapiens, EFO-21, 72 h, EFO21, ovary): > 50 µM
IC50 (cancer cell lines; Homo sapiens, EJ-28, 72 h, EJ28, bladder): > 50 µM
IC50 (cancer cell lines; Homo sapiens, Granta-519, 72 h, GRANTA-519, hematological): 0.89 µM
IC50 (cancer cell lines; Homo sapiens, HCT-15, 72 h, HCT15, colon): > 50 µM
IC50 (cancer cell lines; Homo sapiens, HCT-116, 72 h, HCT116, colon): 3.2 µM
IC50 (cancer cell lines; Homo sapiens, HEK293, 72 h, HEK293, kidney): 6.09 µM
IC50 (cancer cell lines; Homo sapiens, HL-60, 72 h, HL-60, hematological): 3.46 µM
IC50 (cancer cell lines; Homo sapiens, HT-29, 72 h, HT29, colon): > 50 µM
IC50 (cancer cell lines; Homo sapiens, HT-1080, 72 h, HT1080, connective tissue): 3.72 µM
IC50 (cancer cell lines; Homo sapiens, HeLa, endometrial): 3.1 µM
IC50 (cancer cell lines; Homo sapiens, HepG2, 72 h, HEPG2, liver): > 50 µM
IC50 (cancer cell lines; Homo sapiens, Hs-578T, HS578T, breast): > 50 µM
IC50 (cancer cell lines; Homo sapiens, IGROV-1, 72 h, IGROV1, ovary): > 50 µM
IC50 (cancer cell lines; Homo sapiens, IMR-90, 72 h, IMR90, lung): 3.47 µM
IC50 (cancer cell lines; Homo sapiens, JEG-3, 72 h, JEG3, placenta): > 50 µM
IC50 (cancer cell lines; Homo sapiens, JIMT-1, 72 h, JIMT1, breast): 5.55 µM
IC50 (cancer cell lines; Homo sapiens, K562, 72 h, K-562, hematological): > 50 µM
IC50 (cancer cell lines; Homo sapiens, Kasumi 1, 72 h, KASUMI-1, hematological): 0.18 µM
IC50 (cancer cell lines; Homo sapiens, L-363, 72 h, L-363, hematological): 3.29 µM
IC50 (cancer cell lines; Homo sapiens, LoVo, colon): > 50 µM
IC50 (cancer cell lines; Homo sapiens, MCF7, 72 h, MCF7, breast): 5.68 µM
IC50 (cancer cell lines; Homo sapiens, MDA-MB-231, 72 h, MDAMB231, breast): 2.85 µM
IC50 (cancer cell lines; Homo sapiens, MDA-MB-435, 72 h, MDAMB435, skin): > 50 µM
IC50 (cancer cell lines; Homo sapiens, MDA-MB-436, 72 h, MDAMB436, breast): 5.23 µM
IC50 (cancer cell lines; Homo sapiens, MDA-MB-468, 72 h, MDAMB468, breast): > 50 µM
IC50 (cancer cell lines; Homo sapiens, MG-63, 72 h, MG63, bone): 4.11 µM
IC50 (cancer cell lines; Homo sapiens, MHH-ES-1, 72 h, MHHES1, bone): 3.92 µM
IC50 (cancer cell lines; Homo sapiens, MIA PaCa-2, 72 h, MIAPACA2, pancreas): > 50 µM
IC50 (cancer cell lines; Homo sapiens, MINO, hematological): 1.51 µM
IC50 (cancer cell lines; Homo sapiens, MV4-11, 72 h, MV4-11, hematological): 2.25 µM
IC50 (cancer cell lines; Homo sapiens, NCI-H23, 72 h, NCI-H23, lung): 1.68 µM
IC50 (cancer cell lines; Homo sapiens, NCI-H82, 72 h, NCIH82, lung): > 50 µM
IC50 (cancer cell lines; Homo sapiens, NCI-H292, 72 h, NCIH292, lung): 5.22 µM
IC50 (cancer cell lines; Homo sapiens, NCI-H460, 72 h, NCIH460, ung): > 50 µM
IC50 (cancer cell lines; Homo sapiens, OVCAR-3, 72 h, OVCAR3, ovary): 1.82 µM
IC50 (cancer cell lines; Homo sapiens, OVCAR-4, 72 h, OVCAR4, ovary): 3.27 µM
IC50 (cancer cell lines; Homo sapiens, PANC-1, 72 h, PANC1, pancreas): > 50 µM
IC50 (cancer cell lines; Homo sapiens, PLC-PRF-5, 72 h, PLCPRF5, liver): > 50 µM
IC50 (cancer cell lines; Homo sapiens, Panc1005, 72 h, PANC1005, pancreas): 6.31 µM
IC50 (cancer cell lines; Homo sapiens, Ramos, hematological): 1.85 µM
IC50 (cancer cell lines; Homo sapiens, SAOS-2, 72 h, SAOS2, bone): 1.73 µM
IC50 (cancer cell lines; Homo sapiens, SF-268, 72 h, SF268, brain): > 50 µM
IC50 (cancer cell lines; Homo sapiens, SF-295, 72 h, SF295, brain): > 50 µM
IC50 (cancer cell lines; Homo sapiens, SK-BR-3, 72 h, SKBR3, breast): 3.13 µM
IC50 (cancer cell lines; Homo sapiens, SK-HEP1, 72 h, SKHEP1, liver): 4.99 µM
IC50 (cancer cell lines; Homo sapiens, SK-LMS-1, 72 h, SKLMS1, uterus): > 50 µM
IC50 (cancer cell lines; Homo sapiens, SK-MEL-5, 72 h, SKMEL5, skin): > 50 µM
IC50 (cancer cell lines; Homo sapiens, SK-MEL-28, 72 h, SKMEL28, skin): 3.1 µM
IC50 (cancer cell lines; Homo sapiens, SK-N-AS, SKNAS, brain): 0.75 µM
IC50 (cancer cell lines; Homo sapiens, SK-N-SH, SKNSH, brain): 0.6 µM
IC50 (cancer cell lines; Homo sapiens, SK-OV-3, 72 h, SKOV3, ovary): 2.37 µM
IC50 (cancer cell lines; Homo sapiens, SNB-75, 72 h, SNB75, brain): > 50 µM
IC50 (cancer cell lines; Homo sapiens, SU-DHL10, 72 h, SU-DHL-10, hematological): 4.83 µM
IC50 (cancer cell lines; Homo sapiens, SU-DHL-6, 72 h, SU-DHL-6, hematological): 6.01 µM
IC50 (cancer cell lines; Homo sapiens, SW-620, 72 h, SW620, colon): > 50 µM
IC50 (cancer cell lines; Homo sapiens, TE-671, 72 h, TE671, muscle): 3.05 µM
IC50 (cancer cell lines; Homo sapiens, THP-1, 72 h, THP-1, hematological): 3.23 µM
IC50 (cancer cell lines; Homo sapiens, U2OS, bone): > 50 µM
IC50 (cancer cell lines; Homo sapiens, U-87 MG, U87MG, brain): 5.24 µM
IC50 (cancer cell lines; Homo sapiens, UMUC3, 72 h, UMUC3, bladder): > 50 µM
IC50 (cancer cell lines; Homo sapiens, UO-31, 72 h, UO31, kidney): > 50 µM
IC50 (cancer cell lines; Homo sapiens, WSU-NHL, hematological): 2.55 µM
IC50 (cancer cell lines; NCI-H358M, NCIH358M, lung): 1.63 µM
IC50 (cancer cell lines; PBMC, hematological): > 50 µM
IC50 (cancer cell lines; RD-ES, RDES, bone): > 50 µM
